Test [1] has as its system Bramley apples. Description: Evaluation of sliced Bramley apples: appearance by visual inspection, firmness by bending. As for the experimental part:
(§1) The firmness of the produce in Example 11a were evaluated by bending produce samples. Appearance was evaluated by visual inspection. The moisture was evaluated by measuring the amount of water the produce released.
(§2) Whole Bramley apples free from blemishes or bruises, were rinsed with water, sanitized with a sodium hypochlorite solution having 100 parts per million available chlorine, for two minutes, then peeled, cored, and sliced. The sliced apples were dipped into a fresh produce preservative solution that contained 5.12% strontium ascorbate; the fresh produce preservative solution contained 4.12% ascorbic acid and 1.79% […], for about 30 to 60 seconds. The apples were then drained in a colander for one minute. The apple slices and the colander were placed in 500 micron plastic bags from SunSet Packaging, stored at 4° C. and evaluated several times over a 15 day period. Water which collected in the plastic bag was removed and weighed.
(§3) For comparison, similarly prepared apple slices were placed in one of several solutions that contained either: 4.3% ascorbic acid and 1.13% hydrated MgCO3, specifically 4MgCO3.Mg(OH)25H2O or a 5.0% w/w aqueous solution of calcium ascorbate dihydrate, having a pH of 7.2; or a 5.3% w/w solution, of 4.12% ascorbic acid and 1.17% calcium carbonate,; or 6% ascorbic acid having a pH of 2.3; or 48 g ascorbic acid, 48 g citric acid, 16 g CaCl2 and 48 g NaCl in 800 g water, with a pH of 1.2; or 6% w/w citric acid and 6% w/w ascorbic acid; or 4.64% sodium ascorbate having 4.13% ascorbic acid and 1.18% NaCo3.
Bramley apples were preserved with the fresh produce preservative as in Example 11a except that the preservative solution contained lithium ascorbate. The lithium ascorbate solution was prepared by adding 7.35 grams of lithium carbonate and 35 grams ascorbic acid to 800 grams water.
For comparison, apple slices were placed in one of several comparative solutions: a 5.0% w/w aqueous solution of calcium ascorbate dihydrate containing 42.5 grams of calcium ascorbate dihydrate and 800 grams water with a pH of 7; a 5.3% w/w solution of calcium ascorbate containing 44.94 grams of mixture of 9.95 grams calcium carbonate and 35 grams ascorbic acid in 800 grams water with a pH of 5.5; a comparative solution, containing 48 g ascorbic acid, 48 g citric acid, 16 g CaCl2, 48 g NaCl and 800 g water with a pH of 1.2; a comparative solution of sodium ascorbate containing 28.45 grams of sodium carbonate 35 grams ascorbic acid, 800 grams water having a pH of 6.8; a comparative solution of calcium ascorbate containing 8.75 grams of calcium carbonate, 35 grams ascorbic acid, and to 800 grams water; a comparative solution of calcium ascorbate containing 9.95 grams of calcium carbonate, 35 grams ascorbic acid, and 765 grams water; a comparative solution of magnesium ascorbate containing 9.66 grams of hydrated magnesium carbonate 4MgCO3.Mg(OH)25H2O, 35 grams ascorbic acid, 765 grams water, having a pH of 6.4; and a comparative solution of zinc ascorbate containing 35 grams ascorbic acid, 12.74 grams zinc carbonate and 765 grams water, with a pH of 5.5. The apple slices were evaluated on day five.

The test system of test [2] is Bramley apples. Kind of test: Water released by sliced Bramley apples. The protocol:
as §1, §2
as §3, with “NaCo3. […]” for “NaCo3.”

The text below walks through data of patent US20130309380A1, “METHODS FOR PRESERVING FRESH PRODUCE” (NatureSeal, Inc., priority 2003, published 2013).

For `O=C1O[C@H]([C@@H](O)CO)C([O-])=C1O.[Na+]` [Sodium Ascorbate, sodium ascorbate], the Texture result in the test with Bramley apples [1] (4 hr at 4° C.), in the test on Bramley apples [1] (28 hr at 4° C.), with Bramley apples [1] (52 hr at 4° C.), in the test on Bramley apples [1] (94 hr at 4° C.), in the test with Bramley apples [1] (191 hr at 4° C.) and in the test on Bramley apples [1] (Day 5) was “Firm” in each case. Besides, the “Appearance (visual inspection)” value in the test on Bramley apples [1] (335 hr at 4° C.) is recorded as “Internal browning on some”. Also, the Color entry with Bramley apples [1] (Day 5) is “White”. The “Water Released” value in the test with Bramley apples [2] (4 hr at 4° C.) is reported as 6.58 g; with Bramley apples [2] (28 hr at 4° C.), 6.74 g; in the test with Bramley apples [2] (52 hr at 4° C.), 6.67 g; in the test with Bramley apples [2] (94 hr at 4° C.) it was 4.87 g; in the test on Bramley apples [2] (191 hr at 4° C.), 4.08 g; in the test on Bramley apples [2] (335 hr at 4° C.), 3.77 g.

Regarding calcium ascorbate dihydrate, the Texture entry is “Firm” in the test on Bramley apples [1] (28 hr at 4° C.); “Firm” with Bramley apples [1] (52 hr at 4° C.); “Firm” with Bramley apples [1] (94 hr at 4° C.); “Firm” in the test on Bramley apples [1] (191 hr at 4° C.); “Firm” in the test on Bramley apples [1] (335 hr at 4° C.); “Very Firm” with Bramley apples [1] (Day 5). Further, the “Appearance (visual inspection)” value with Bramley apples [1] (335 hr at 4° C.) is listed as “Good condition”. Besides, the Color result in the test on Bramley apples [1] (Day 5) was “White”. Also, the “Water Released” value worked out at 6.84 g with Bramley apples [2] (4 hr at 4° C.); 5.88 g in the test with Bramley apples [2] (28 hr at 4° C.); 5.56 g in the test with Bramley apples [2] (52 hr at 4° C.); 4.00 g in the test with Bramley apples [2] (94 hr at 4° C.); 2.67 g with Bramley apples [2] (191 hr at 4° C.); 1.33 g in the test with Bramley apples [2] (335 hr at 4° C.).

Turning to magnesium ascorbate, the Texture entry in the test with Bramley apples [1] (28 hr at 4° C.) was “Firm”; with Bramley apples [1] (52 hr at 4° C.) it was “Firm”; with Bramley apples [1] (94 hr at 4° C.) it was “Firm”; with Bramley apples [1] (191 hr at 4° C.), “Firm”; in the test with Bramley apples [1] (335 hr at 4° C.) it was “Firm and crisp”; with Bramley apples [1] (Day 5), “Very Firm”. Moreover, the “Appearance (visual inspection)” value in the test on Bramley apples [1] (335 hr at 4° C.) is reported as “Good color”. In the test on Bramley apples [1] (Day 5), the Color entry was “White”. The “Water Released” value in the test on Bramley apples [2] (4 hr at 4° C.) turned out to be 6.54 g; in the test on Bramley apples [2] (28 hr at 4° C.), 7.07 g; with Bramley apples [2] (52 hr at 4° C.) it was 6.43 g; in the test with Bramley apples [2] (94 hr at 4° C.), 4.75 g; in the test on Bramley apples [2] (191 hr at 4° C.), 3.73 g; in the test with Bramley apples [2] (335 hr at 4° C.), 2.17 g.

Consider zinc ascorbate, for which, in the test with Bramley apples [1] (Day 5), the Color result was “Brown” and the Texture result was “Very Soft”.
